Data: US10842793B2, “Inhibitors of the unconventional secretion of fibroblast growth factor 2 (FGF2) by tumor cells and uses thereof” (Universität Heidelberg, priority 2016, dated 2020)
Entries after “also recorded” stand apart in the source; their conditions may differ.

Tests used:
[1] = biological target: T1, His-FGF2/GST-NΔ173 Tec (Homo sapiens, UniProt P42680); assay: Alpha protein-protein interaction assay, FGF2 binding to Tec kinase; settings: dose-response, ± SEM, four independent experiments
T1 construct: made in house; host or cells: Tec: SF9 insect cells (baculovirus); FGF2: E. coli
Experimental: Alpha® protein-protein interaction assays with His-tagged FGF2 (125 nM) and GST-NΔ173 Tec (31.25 nM) (blue spheres) as well as His-tagged MBP-CARP (20 nM) and GST-titin (20 nM) (red squares) were conducted as described in the legend of FIG. 3 and in Experimental Procedures. Additionally, as a technical control, a single fusion protein containing both a GST- and a His-tag was used (20 nM; black triangles). Dose response curves were recorded with the three active compounds (#6, #14 and #21) as well as the two control compounds (#18 and #19) (FIG. 4). For each compound four independent experiments (each of which was conducted in three technical replicates) were performed. Data points were fitted using the non-linear regression function log (inhibitor) vs. response—variable slope (four parameters). Data were evaluated using GraphPad Prism (v5 for Mac OS X). Standard deviations are shown.
A Protein-Protein Interaction Assay Designed to Screen Small Molecule Libraries for Compounds Inhibiting FGF2 Binding to Tec Kinase (Alphascreen® Assay)
To quantify the interaction of FGF2 with Tec kinase under screening conditions, an assay was established based upon Alpha® technology. Briefly, this methodology is based on a pair of proteins of interest that bind to Alpha® donor and acceptor beads, respectively. Upon excitation of donor beads at 680 nm, singlet oxygen species are produced that can diffuse within a range of 200 nm. […] This in turn causes emission of light with a wave length of 520 nm that is detected as the Alpha® signal.
The optimal concentrations of His-tagged FGF2 and GST-tagged NΔ173 Tec in the Alphascreen were determinate in a cross-titration experiment (not shown) to be 31.25 nM and 62.5 nM, respectively. […] All Alpha® assays were carried out in white low volume 384-well plates (#6008280, ProxiPlate™) and read in an EnVision plate reader (Perkin Elmer). […]
AlphaScreen experiments were performed as described above. […] Following 60 min of incubation, Alpha® signals were recorded using an EnVision™ plate reader (PerkinElmer). […]

[2] = Observation of compound aggregates in cell culture media; format: physicochemical; settings: 25 and 50 μM

T1 sequence (P42680 174-631 limits assumed, stated change not applied): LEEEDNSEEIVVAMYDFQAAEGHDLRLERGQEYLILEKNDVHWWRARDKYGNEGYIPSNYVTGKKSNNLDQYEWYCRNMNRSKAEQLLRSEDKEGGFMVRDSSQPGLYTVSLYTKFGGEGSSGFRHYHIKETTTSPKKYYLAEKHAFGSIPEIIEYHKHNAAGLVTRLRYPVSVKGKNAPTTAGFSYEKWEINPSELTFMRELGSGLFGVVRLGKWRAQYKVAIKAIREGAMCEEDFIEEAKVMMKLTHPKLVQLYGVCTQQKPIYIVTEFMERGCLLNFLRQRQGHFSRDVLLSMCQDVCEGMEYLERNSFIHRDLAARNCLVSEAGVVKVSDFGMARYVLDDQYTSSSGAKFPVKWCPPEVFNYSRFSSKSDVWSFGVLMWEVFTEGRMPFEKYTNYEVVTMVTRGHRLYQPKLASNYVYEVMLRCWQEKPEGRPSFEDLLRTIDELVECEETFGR

| Structure (SMILES) | IC50 [1] | solubility / aggregates of compound [2] |
| --- | --- | --- |
| COC(=O)c1c(C)[nH]c(C(=O)OCc2cc(=O)n3c(C)cccc3n2)c1C [compound #6] | 8.9 µM | – |
| CC(=O)c1c(C)[nH]c(C(=O)OCc2cc(=O)n3cc(Br)ccc3n2)c1C [compound #14] | 7 µM | – |
| CC(=O)c1c(C)[nH]c(C(=O)CSc2nc3cc(Cl)cnc3[nH]2)c1C [compound #21] | 11.7 µM | aggregates of compound #21 were increasingly observable at concentrations of 25 and 50 μM; also recorded: solubility issues |
